Reference: PubChem BioAssay (NCI)
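Each compound was tested at five concentrations against cells in 96-well plates for 48 hours. GI50 marks 50% less growth. At the TGI there is no net growth.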

Legend:
Assay in all cases: growth of human tumour cells (NCI), 48 h
[1] = system: 786-0 renal
[2] = system: HCT-15 colon
[3] = system: HS 578T breast
[4] = system: KM12 colon
[5] = system: MDA-MB-231 breast
[6] = system: NCI-H23 lung
[7] = system: NCI/ADR-RES ovarian
[8] = system: OVCAR-4 ovarian
[9] = system: HL-60(TB) leukemia
[10] = system: SNB-19 CNS

## ClCc1cccc(Cn2cnc3ncnc(Cl)c32)c1
[1]
  GI50: 2060 nM
  TGI: 4.09 µM
[2]
  GI50: 1960 nM
  TGI: 4.34 µM
[3]
  GI50: 18.2 µM
  TGI: 42.3 µM
[4]
  GI50: 1850 nM
  TGI: 3.32 µM
[5]
  GI50: 1720 nM
  TGI: 3.4 µM
[6]
  GI50: 1230 nM
  TGI: 3.38 µM
[7]
  GI50: 2780 nM
  TGI: 9.75 µM
[8]
  GI50: 4170 nM
  TGI: 16 µM

## O=S1(=O)OCCOS(=O)(=O)C1Br
[1]
  TGI: > 100 µM
[9]
  TGI: > 100 µM
[4]
  TGI: > 100 µM
[6]
  TGI: > 100 µM
[8]
  TGI: > 100 µM
[10]
  TGI: > 100 µM

## COc1cc2c(c(OC)c1OC)-c1ccc(OC)c(=O)cc1C(NC(=O)c1ccc(N=[N+]=[N-])cc1)CC2 (stereo not given)
[1]
  TGI: > 100 µM
[2]
  TGI: 0.561 µM
[9]
  TGI: 0.441 µM
[3]
  TGI: > 100 µM
[4]
  TGI: 0.0786 µM
[5]
  TGI: 12.5 µM
[6]
  TGI: > 100 µM
[8]
  TGI: > 100 µM
[10]
  TGI: > 100 µM

## C[Si](C)(C)C1(Sc2ccccc2)SCCCS1
[1]
  TGI: > 100 µM
[2]
  TGI: > 100 µM
[9]
  TGI: 33.3 µM
[4]
  TGI: > 100 µM
[6]
  TGI: > 100 µM
[8]
  TGI: > 100 µM
[10]
  TGI: > 100 µM

## OCCCCCNCc1cc2cc3c(cc2c2cc(OCc4ccccc4)ccc12)OCO3
[1]
  GI50: 1610 nM
  TGI: 2.96 µM
[2]
  GI50: 1590 nM
  TGI: 3.05 µM
[9]
  GI50: 1520 nM
  TGI: 3.65 µM
[3]
  GI50: 1.79 µM
  TGI: 3.56 µM
[4]
  GI50: 1620 nM
  TGI: 2.97 µM
[5]
  GI50: 1300 nM
  TGI: 2.56 µM
[8]
  GI50: 1870 nM
  TGI: 3.59 µM

## OC(c1nc2ccccc2[nH]1)C(O)C(O)C(O)c1nc2ccccc2[nH]1 (stereo not given)
[1]
  TGI: > 100 µM
[2]
  TGI: > 100 µM
[9]
  TGI: > 100 µM
[3]
  TGI: > 100 µM
[4]
  TGI: > 100 µM
[5]
  TGI: > 100 µM
[7]
  TGI: > 100 µM
[8]
  TGI: > 100 µM
[10]
  TGI: > 100 µM

## CCN1CCN(c2nc(C)cc(N(CCNc3ccnc4cc(Cl)ccc34)Cc3ccc4c(c3)OCO4)n2)CC1
[1]
  GI50: 1540 nM
  TGI: 3.08 µM
[2]
  GI50: 1460 nM
  TGI: 3.26 µM
[9]
  GI50: 2100 nM
  TGI: 4.22 µM
[4]
  GI50: 3970 nM
  TGI: 15.2 µM
[5]
  GI50: 1380 nM
  TGI: 3.19 µM
[6]
  GI50: 3440 nM
  TGI: 14.2 µM
[7]
  GI50: 2820 nM
  TGI: 10.8 µM
[8]
  GI50: 2580 nM
  TGI: 11.4 µM
[10]
  GI50: 3000 nM
  TGI: 10.2 µM

## Cc1cc(-c2ccc3nc(C4CCOCC4)n(CCOC(F)(F)F)c3c2)cn(C)c1=O
[1]
  GI50: 1030 nM
[2]
  TGI: 4.23 µM
[9]
  GI50: 24.7 nM
  TGI: 0.197 µM
[3]
  TGI: 0.888 µM
[4]
  GI50: 724 nM
  TGI: 11.4 µM
[6]
  GI50: 518 nM
  TGI: 12.8 µM
[7]
  GI50: 918 nM

## CN(C)c1nc(=Nc2ccc(N=c3nc(N(C)C)ss3)cc2)ss1
[1]
  TGI: > 100 µM
[2]
  TGI: > 100 µM
[9]
  TGI: 45.3 µM
[4]
  TGI: > 100 µM
[6]
  TGI: 20.1 µM
[8]
  TGI: 48.1 µM
[10]
  TGI: > 100 µM

## CCN(CC)/C(SCc1ccccc1)=C(\C(Cl)=C(Cl)Cl)[N+](=O)[O-]
[1]
  TGI: 30.2 µM
[2]
  TGI: 71.7 µM
[9]
  TGI: 38.9 µM
[4]
  TGI: 36.5 µM
[5]
  TGI: 49.7 µM
[6]
  TGI: 49.6 µM
[7]
  TGI: 38 µM
[8]
  TGI: 44.6 µM
[10]
  TGI: 97.5 µM
